Read-outs that look alike come from different tables or passages of the source. Numbered stars: 1 amine (or outer) side, 2 acyl side, 3 side chain; on linkers, the order of the positions; unused ones are H or OH. Square brackets hold non-standard residues; d marks the D form. Side chains are listed from the residue outwards. Peptide text beside a SMILES is read from it. * marks the point of attachment. γGlu = O=C(O)[C@H](CCC(=O)[*:2])N[*:1]; Palmitoyl = CCCCCCCCCCCCCCCC(=O)*; Aib = CC(C)(N)C(=O)O
Key:
Assay type in all cases: cell-based
glucagon receptor = target: T1, glucagon receptor (Homo sapiens, UniProt P47871); assay: cAMP induction, firefly luciferase reporter assay in HEK293 cells co-transfected with the glucagon receptor
T1 construct: expressed in transfected cells; host or cells: HEK293
T1 sequence (P47871 26-477, species assumed): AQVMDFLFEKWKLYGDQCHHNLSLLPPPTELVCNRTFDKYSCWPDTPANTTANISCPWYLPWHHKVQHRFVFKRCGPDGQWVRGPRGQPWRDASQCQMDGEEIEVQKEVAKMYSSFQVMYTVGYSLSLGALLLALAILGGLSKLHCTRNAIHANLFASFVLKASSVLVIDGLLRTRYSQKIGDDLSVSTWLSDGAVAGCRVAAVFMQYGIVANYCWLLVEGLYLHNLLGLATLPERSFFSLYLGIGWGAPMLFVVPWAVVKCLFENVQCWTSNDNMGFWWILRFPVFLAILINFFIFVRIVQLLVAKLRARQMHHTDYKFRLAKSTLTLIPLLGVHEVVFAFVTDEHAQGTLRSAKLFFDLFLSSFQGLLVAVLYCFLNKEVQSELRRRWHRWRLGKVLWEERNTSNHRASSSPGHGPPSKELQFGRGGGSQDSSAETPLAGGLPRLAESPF
Experimental: (§1) The ability of each peptide to induce cAMP was measured in a firefly luciferase-based reporter assay. […] At the end of the incubation, 100 μL of LucLite luminescence substrate reagent (Perkin Elmer, Wellesley, Mass.) were added to each well. […] In some instances, the in vitro agonist activity at the GIP receptor was also tested.

GLP-1 receptor = target: T2, GLP-1 receptor (Homo sapiens, UniProt P43220); assay: cAMP induction, firefly luciferase reporter assay in HEK293 cells co-transfected with the GLP-1 receptor
T2 construct: expressed in transfected cells; host or cells: HEK293
T2 sequence (P43220 24-463): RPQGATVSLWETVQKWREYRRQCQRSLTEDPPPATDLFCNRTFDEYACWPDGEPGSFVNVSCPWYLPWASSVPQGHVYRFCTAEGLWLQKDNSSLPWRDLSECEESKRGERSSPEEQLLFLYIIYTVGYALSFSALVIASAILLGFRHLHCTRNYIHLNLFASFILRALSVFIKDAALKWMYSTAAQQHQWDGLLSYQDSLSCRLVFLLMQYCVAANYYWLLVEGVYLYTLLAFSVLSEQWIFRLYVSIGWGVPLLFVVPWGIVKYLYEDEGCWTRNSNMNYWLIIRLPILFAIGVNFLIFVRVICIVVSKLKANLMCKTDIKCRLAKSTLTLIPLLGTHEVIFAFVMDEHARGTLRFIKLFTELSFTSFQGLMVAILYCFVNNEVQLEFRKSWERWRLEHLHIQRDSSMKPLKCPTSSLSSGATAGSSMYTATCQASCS
Experimental: as §1

GIP receptor = target: T3, GIP receptor (Homo sapiens, UniProt P48546); assay: in vitro agonist activity at the GIP receptor (cAMP luciferase reporter, HEK293 cells)
T3 construct: expressed in transfected cells; host or cells: HEK293
T3 sequence (P48546 22-466): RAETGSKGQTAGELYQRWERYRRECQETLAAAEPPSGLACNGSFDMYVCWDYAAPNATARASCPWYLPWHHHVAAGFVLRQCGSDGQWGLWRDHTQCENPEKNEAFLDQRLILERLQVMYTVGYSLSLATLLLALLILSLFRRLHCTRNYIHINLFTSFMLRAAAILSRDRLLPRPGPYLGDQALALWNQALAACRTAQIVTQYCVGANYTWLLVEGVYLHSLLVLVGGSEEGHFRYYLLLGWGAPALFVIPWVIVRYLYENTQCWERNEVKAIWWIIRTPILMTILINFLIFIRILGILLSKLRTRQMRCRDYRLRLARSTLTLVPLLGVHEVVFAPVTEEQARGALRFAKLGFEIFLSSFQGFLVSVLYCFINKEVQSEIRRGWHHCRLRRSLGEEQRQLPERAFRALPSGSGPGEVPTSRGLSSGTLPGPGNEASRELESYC
Experimental: as §1, with “It is understood that a lower EC50 indicates higher activity or potency at the receptor. […] The” for “The”

[1] = HEK293 cells, cAMP-responsive luciferase reporter, 5 hours incubation
[2] = in vitro agonist activity, read-out: EC50 (nM) at GIP receptor

Row | SMILES | EC50 (glucagon receptor; [1]) [nM] | EC50 (GLP-1 receptor; [1]) [nM] | EC50 (GIP receptor; [2]) [nM] | EC50 (glucagon receptor) [nM] | EC50 (GLP-1 receptor) [nM] | EC50 (GIP receptor) [nM]
1 | CCCCCCCCCCCCCCCC(=O)N[C@@H](CCC(=O)NCCCC[C@H](NC(=O)[C@H](CC(=O)O)NC(=O)[C@H](CO)NC(=O)[C@@H](NC(=O)[C@H](Cc1ccccc1)NC(=O)[C@@H](NC(=O)CNC(=O)[C@H](CCC(N)=O)NC(=O)[C@@H](C)NC(=O)[C@@H](N)Cc1cnc[nH]1)[C@@H](C)O)[C@@H](C)O)C(=O)N[C@@H](CO)C(=O)N[C@@H](CCCCN)C(=O)N[C@@H](Cc1ccc(O)cc1)C(=O)N[C@@H](CC(C)C)C(=O)N[C@@H](CC(=O)O)C(=O)N[C@@H](CCC(=O)O)C(=O)N[C@@H](CCCNC(=N)N)C(=O)N[C@@H](C)C(=O)N[C@@H](C)C(=O)N[C@@H](CCC(N)=O)C(=O)N[C@@H](CC(=O)O)C(=O)N[C@@H](Cc1ccccc1)C(=O)N[C@H](C(=O)N[C@@H](CCC(N)=O)C(=O)N[C@@H](Cc1c[nH]c2ccccc12)C(=O)N[C@@H](CC(C)C)C(=O)N[C@@H](CC(C)C)C(=O)N[C@@H](CC(=O)O)C(=O)N[C@H](C(N)=O)[C@@H](C)O)C(C)C)C(=O)O [compound 56] |  |  |  | 0.006 | 0.02 | 1.64
2 | CCCCCCCCCCCCCCCC(=O)N[C@@H](CCC(=O)NCCCC[C@H](NC(=O)[C@H](CC(=O)O)NC(=O)[C@H](CO)NC(=O)[C@@H](NC(=O)[C@H](Cc1ccccc1)NC(=O)[C@@H](NC(=O)CNC(=O)[C@H](CCC(N)=O)NC(=O)C(C)(C)NC(=O)[C@@H](N)Cc1c[nH]cn1)[C@@H](C)O)[C@@H](C)O)C(=O)N[C@@H](CO)C(=O)N[C@@H](CCCCN)C(=O)N[C@@H](Cc1ccc(O)cc1)C(=O)N[C@@H](CC(C)C)C(=O)N[C@@H](CC(=O)O)C(=O)NC(C)(C)C(=O)N[C@@H](CCCNC(=N)N)C(=O)N[C@@H](C)C(=O)N[C@@H](C)C(=O)N[C@@H](CCC(N)=O)C(=O)N[C@@H](CC(=O)O)C(=O)N[C@@H](Cc1ccccc1)C(=O)N[C@H](C(=O)N[C@@H](CCC(N)=O)C(=O)N[C@@H](Cc1c[nH]c2ccccc12)C(=O)N[C@@H](CC(C)C)C(=O)N[C@@H](CCSC)C(=O)N[C@@H](CCCCN)C(=O)N[C@H](C(=O)N[C@@H](CCCCN)C(=O)N[C@H](CCC(=O)O)C(=O)O)[C@@H](C)O)C(C)C)C(=O)O [compound 60] (H-H[Aib]QGTFTSDK([γGlu-Palmitoyl])SKYLD[Aib]RAAQDFVQWLMKTK[dE]-OH; N-terminus assumed) | 4.6 | 0.033 | 147 |  |  | 
3 | CCCCCCCCCCCCCCCC(=O)N[C@@H](CCC(=O)N[C@@H](CCC(=O)NCCCC[C@H](NC(=O)[C@H](CC(=O)O)NC(=O)[C@H](CO)NC(=O)[C@@H](NC(=O)[C@H](Cc1ccccc1)NC(=O)[C@@H](NC(=O)CNC(=O)[C@H](CCC(N)=O)NC(=O)C(C)(C)NC(=O)[C@@H](N)Cc1c[nH]cn1)[C@@H](C)O)[C@@H](C)O)C(=O)N[C@@H](CO)C(=O)N[C@@H](CCCCN)C(=O)N[C@@H](Cc1ccc(O)cc1)C(=O)N[C@@H](CC(C)C)C(=O)N[C@@H](CC(=O)O)C(=O)N[C@@H](CCC(=O)O)C(=O)N[C@@H](CCCNC(=N)N)C(=O)N[C@@H](C)C(=O)N[C@@H](C)C(=O)N[C@@H](CCC(N)=O)C(=O)N[C@@H](CC(=O)O)C(=O)N[C@@H](Cc1ccccc1)C(=O)N[C@H](C(=O)N[C@@H](CCC(N)=O)C(=O)N[C@@H](Cc1c[nH]c2ccccc12)C(=O)N[C@@H](CC(C)C)C(=O)N[C@@H](CCSC)C(=O)N[C@@H](CC(=O)O)C(=O)N[C@H](C(N)=O)[C@@H](C)O)C(C)C)C(=O)O)C(=O)O [compound 61] | 0.009 | 0.004 | 0.676 |  |  | 

The next lines start with results.

Row | EC50 (glucagon receptor; [1]) [nM] | EC50 (GLP-1 receptor; [1]) [nM] | EC50 (GIP receptor; [2]) [nM] | SMILES | EC50 (glucagon receptor) [nM] | EC50 (GLP-1 receptor) [nM] | EC50 (GIP receptor) [nM]
4 | 0.09 | 0.025 | 35.7 | CCCCCCCCCCCCCCCC(=O)NCCCC[C@H](NC(=O)[C@H](CC(=O)O)NC(=O)[C@H](CO)NC(=O)[C@@H](NC(=O)[C@H](Cc1ccccc1)NC(=O)[C@@H](NC(=O)CNC(=O)[C@H](CCC(N)=O)NC(=O)C(C)(C)NC(=O)[C@@H](N)Cc1c[nH]cn1)[C@@H](C)O)[C@@H](C)O)C(=O)N[C@@H](CO)C(=O)N[C@@H](CCCCN)C(=O)N[C@@H](Cc1ccc(O)cc1)C(=O)N[C@@H](CC(C)C)C(=O)N[C@@H](CC(=O)O)C(=O)N[C@@H](CO)C(=O)N[C@@H](CCCNC(=N)N)C(=O)N[C@@H](CCCNC(=N)N)C(=O)N[C@@H](C)C(=O)NC(C)(C)C(=O)N[C@@H](CC(=O)O)C(=O)N[C@@H](Cc1ccccc1)C(=O)N[C@H](C(=O)N[C@@H](CCC(N)=O)C(=O)N[C@@H](Cc1c[nH]c2ccccc12)C(=O)N[C@@H](CC(C)C)C(=O)N[C@@H](CCSC)C(=O)N[C@@H](CC(N)=O)C(=O)N[C@H](C(N)=O)[C@@H](C)O)C(C)C [compound 58] (H-H[Aib]QGTFTSDK(Palmitoyl)SKYLDSRRA[Aib]DFVQWLMNT-NH2) |  |  | 
5 | 0.051 | 0.01 | 7.48 | CCCCCCCCCCCCCCCC(=O)NCCCC[C@H](NC(=O)[C@H](CC(=O)O)NC(=O)[C@H](CO)NC(=O)[C@@H](NC(=O)[C@H](Cc1ccccc1)NC(=O)[C@@H](NC(=O)CNC(=O)[C@H](CCC(N)=O)NC(=O)C(C)(C)NC(=O)[C@@H](N)Cc1c[nH]cn1)[C@@H](C)O)[C@@H](C)O)C(=O)N[C@@H](CO)C(=O)N[C@@H](CCCCN)C(=O)N[C@@H](Cc1ccc(O)cc1)C(=O)N[C@@H](CC(C)C)C(=O)N[C@@H](CC(=O)O)C(=O)N[C@@H](CCC(=O)O)C(=O)N[C@@H](CCCNC(=N)N)C(=O)N[C@@H](CCCNC(=N)N)C(=O)N[C@@H](C)C(=O)NC(C)(C)C(=O)N[C@@H](CC(=O)O)C(=O)N[C@@H](Cc1ccccc1)C(=O)N[C@H](C(=O)N[C@@H](CCC(N)=O)C(=O)N[C@@H](Cc1c[nH]c2ccccc12)C(=O)N[C@@H](CC(C)C)C(=O)N[C@@H](CCSC)C(=O)N[C@@H](CC(N)=O)C(=O)N[C@H](C(N)=O)[C@@H](C)O)C(C)C [compound 59] (H-H[Aib]QGTFTSDK(Palmitoyl)SKYLDERRA[Aib]DFVQWLMNT-NH2) |  |  | 
